Data published in the supplement of paper PMC11451515.

Test system: P12-Ichikawa
Assay: cell viability relative to DMSO control; higher = less cytotoxic
Conditions: 48 h
How it was run: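 Cells were incubated for 48 h at 37°C before CellTiter-Glo One luminescence was read. The cells were NOMO1 or SEM (500 cells/well) or P12-Ichikawa (1000 cells/well) leukemia cells, adapted for at least four passages in each medium and seeded in 1536-well plates (5 μl). Dosing used library compounds in DMSO applied by pin over 11 threefold points, 47 μM to 0.79 nM. Viability is the per-plate percentage of DMSO wells, with cell-free wells as background.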

[1] = HPLM + 10% dialyzed FBS, 0.000781 µM
[2] = HPLM + 10% dialyzed FBS, 0.00234 µM
[3] = HPLM + 10% dialyzed FBS, 0.00702 µM
[4] = HPLM + 10% dialyzed FBS, 0.0211 µM
[5] = HPLM + 10% dialyzed FBS, 0.0632 µM
[6] = HPLM + 10% dialyzed FBS, 0.19 µM
[7] = HPLM + 10% dialyzed FBS, 0.569 µM
[8] = HPLM + 10% dialyzed FBS, 1.71 µM
[9] = HPLM + 10% dialyzed FBS, 5.12 µM
[10] = HPLM + 10% dialyzed FBS, 15.4 µM
[11] = HPLM + 10% dialyzed FBS, 46.1 µM
[12] = RPMI 5 mM glucose + 10% FBS, 0.000781 µM
[13] = RPMI 5 mM glucose + 10% FBS, 0.00234 µM
[14] = RPMI 5 mM glucose + 10% FBS, 0.00702 µM
[15] = RPMI 5 mM glucose + 10% FBS, 0.0211 µM
[16] = RPMI 5 mM glucose + 10% FBS, 0.0632 µM
[17] = RPMI 5 mM glucose + 10% FBS, 0.19 µM
[18] = RPMI 5 mM glucose + 10% FBS, 0.569 µM
[19] = RPMI 5 mM glucose + 10% FBS, 1.71 µM
[20] = RPMI 5 mM glucose + 10% FBS, 5.12 µM
[21] = RPMI 5 mM glucose + 10% FBS, 15.4 µM
[22] = RPMI 5 mM glucose + 10% FBS, 46.1 µM
[23] = RPMI 5 mM glucose + 10% dialyzed FBS, 0.000781 µM
[24] = RPMI 5 mM glucose + 10% dialyzed FBS, 0.00234 µM
[25] = RPMI 5 mM glucose + 10% dialyzed FBS, 0.00702 µM
[26] = RPMI 5 mM glucose + 10% dialyzed FBS, 0.0211 µM
[27] = RPMI 5 mM glucose + 10% dialyzed FBS, 0.0632 µM
[28] = RPMI 5 mM glucose + 10% dialyzed FBS, 0.19 µM
[29] = RPMI 5 mM glucose + 10% dialyzed FBS, 0.569 µM
[30] = RPMI 5 mM glucose + 10% dialyzed FBS, 1.71 µM
[31] = RPMI 5 mM glucose + 10% dialyzed FBS, 5.12 µM
[32] = RPMI 5 mM glucose + 10% dialyzed FBS, 15.4 µM
[33] = RPMI 5 mM glucose + 10% dialyzed FBS, 46.1 µM

Structure (SMILES)	cell viability [1] [%]	cell viability [2] [%]	cell viability [3] [%]	cell viability [4] [%]	cell viability [5] [%]	cell viability [6] [%]	cell viability [7] [%]	cell viability [8] [%]	cell viability [9] [%]	cell viability [10] [%]	cell viability [11] [%]	cell viability [12] [%]	cell viability [13] [%]	cell viability [14] [%]	cell viability [15] [%]	cell viability [16] [%]	cell viability [17] [%]	cell viability [18] [%]	cell viability [19] [%]	cell viability [20] [%]	cell viability [21] [%]	cell viability [22] [%]	cell viability [23] [%]	cell viability [24] [%]	cell viability [25] [%]	cell viability [26] [%]	cell viability [27] [%]	cell viability [28] [%]	cell viability [29] [%]	cell viability [30] [%]	cell viability [31] [%]	cell viability [32] [%]	cell viability [33] [%]
CCCCCNC(=N)N/N=C/c1c[nH]c2ccc(OC)cc12	122	119	121	130	126	139	128	137	121	59.8	20.2																						
Cc1c(N)nc([C@H](CC(N)=O)NC[C@@H](N)C(N)=O)nc1C(=O)N[C@H](C(=O)N[C@@H](C)[C@H](O)[C@@H](C)C(=O)N[C@@H](C(=O)NCCc1nc(-c2nc(C(=O)NCCC[S+](C)C)cs2)cs1)[C@@H](C)O)C(O[C@H]1O[C@H](CO)[C@H](O)[C@@H](O)[C@H]1O[C@H]1O[C@H](CO)[C@@H](O)[C@H](OC(N)=O)[C@@H]1O)c1c[nH]cn1 (some centres not stated)	112	114	108	108	111	120	110	96.6	78	28.3	40.9	103	102	112	114	104	109	105	67.3	51.5	21.4	37	102	103	108	103	105	109	107	91.6	82.1	37.2	44.6
CN1C(=O)/C(=C(NC2=CC=C(I)C=C2F)\C3=C1\N=C/N(C[C@@H](O)CO)C3=O)F	86.5	82.2	87.2	89.6	81.1	82.8	75.4	80.3	74.8	71.3	62.9	78.2	74.9	83.6	73.8	71.6	71.3	72.1	70.4	68	68.9	40.5	81.1	82.2	85.6	86.7	77.7	81.9	76.2	80.1	78	65.2	39.2
Cc1ccc2nc(NCCN)c3ncc(C)n3c2c1	104	105	106	101	106	104	103	105	109	94.8	42.5	97.8	111	105	107	107	108	102	104	102	97.4	23.2	102	110	104	105	104	91	101	102	103	101	33.7
Nc1n[nH]c2nnc(-c3c(-c4ccccc4)nn4ccccc34)cc12	104	117	112	120	126	126	120	118	90	18.8	10.6	109	116	123	118	134	119	141	138	95.3	17.7	9.91	113	116	128	121	133	134	136	131	132	53.6	17.9
CN(C)CCCC1(c2ccc(F)cc2)OCc2cc(C#N)ccc21 (configuration not stated)	98.8	96.8	95.5	90.1	95.1	94.8	91.8	99.9	69.7	87.7	74.7	91	83.8	88.2	91.1	96.4	89.7	87.1	85.8	83.2	82.5	74.3	90.6	97.3	91.1	92.7	94.4	92.3	89.3	91.9	78.5	80.2	78.4
CC(=O)OC[C@@H]1O[C@H]([C@H](OC(C)=O)[C@@H]1OC(C)=O)N2\C=C/C(=O)NC2=O	119	120	128	122	114	120	110	110	113	106	71.8	121	117	121	116	117	108	102	113	108	114	98.3	120	106	116	111	111	111	111	108	99.7	104	92
O=C(O)c1ccc(O)c2ncc(N3CCOCC3)cc12	106	105	100	108	107	103	97.2	99.9	98.6	95.6	7.44	102	99.1	96.8	92.8	95.7	97.6	96.6	94.2	87.8	85.2	9.83	98.5	95.2	104	90.9	98	97.7	105	102	81.8	84.7	5.31
C[C@H](NC(=O)Cc1cc(F)cc(F)c1)C(=O)N[C@H](C(=O)OC(C)(C)C)c1ccccc1	94	90.9	94.9	94.1	94.6	92.5	89	88.3	86.9	88	80.4	92.3	91.7	91.2	87	90.7	95.4	89.1	82.7	87.9	87.6	92.8	78.9	82.5	79.8	79.7	86.1	88.8	78.2	86.1	83.7	77.4	73.3
Cc1ccc(C(=O)Nc2cccc(C(F)(F)F)c2)cc1Nc1nc(-c2cccnc2)nc2c1cnn2C	88.1	90.8	93.7	89.5	91.2	90	86.6	85.9	83.3	86.7	84	73.1	83.8	88.9	85.6	83.9	82.8	87.5	88.2	79.5	78.8	74.5	90.8	85.2	87.6	86.7	95.5	84.7	90.9	96.7	75.8	76.8	86.5
COc1cc(C(=O)NC2CCN(C)CC2)ccc1Nc1ncc2c(n1)N(C1CCCC1)CCC(=O)N2C(C)C	104	102	103	110	109	110	85	109	79.2	26.3	4.5	107	103	95.1	112	108	116	89.6	114	73.4	42.7	5.67	98.1	104	111	110	111	106	92.3	107	71.2	54.1	6
CC1(C)SCCN([S+](=O)([O-])c2ccc(OCC#CCO)cc2)[C@H]1C(=O)NO	103	108	107	98.9	104	103	98.5	90.9	91.2	93.4	95.1	106	95.5	101	98.7	101	95.8	104	87.5	87.9	80.6	89.2	97	97.7	101	103	89.8	88.3	88.1	91.9	86.9	85.4	83.6
Cc1ccc([C@@H]2O[C@H](CO)[C@@H](O)[C@H](O)[C@H]2O)cc1Cc1ccc(-c2ccc(F)cc2)s1	119	112	119	116	126	127	126	127	127	125	90.3	118	121	135	130	129	132	128	126	131	125	77.7	114	117	118	121	132	132	134	131	118	120	69.9
COCCn1c2c([n+](Cc3cnccn3)c1C)C(=O)c1ccccc1C2=O	116	115	113	112	104	51.4	41.9	15.8	5.02	2.55	1.1	110	108	118	106	112	48.9	17.6	6.76	3.92	3.27	2.14	113	108	112	110	106	51.4	11.7	5.22	3.6	2.56	1.9
Nc1ccc(C(=O)Nc2cccc(-c3nc(N4CCOCC4)c4oc5ncccc5c4n3)c2)cn1	125	122	125	121	120	127	120	124	97.3	100	87.8	118	119	115	114	124	112	103	101	81.5	94.7	77.2											
